Test results taken from PubChem BioAssay (NCI).
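GI50 marks 50% less growth. TGI: concentration producing complete growth inhibition.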

How the values were obtained:
Assay in all cases: inhibition of tumour cell growth, NCI panel, 384-well format
[1] = test system: M14 melanoma
[2] = test system: SK-MEL-5 melanoma
[3] = test system: UACC-62 melanoma
[4] = test system: NCI/ADR-RES ovarian
[5] = test system: SF-295 CNS
[6] = test system: HL-60(TB) leukemia
[7] = test system: T-47D breast
[8] = test system: OVCAR-8 ovarian
[9] = test system: OVCAR-3 ovarian
[10] = test system: NCI-H522 lung
[11] = test system: A498 renal
[12] = test system: ACHN renal
[13] = test system: NCI-H23 lung
[14] = test system: CCRF-CEM leukemia
[15] = test system: UO-31 renal
[16] = test system: COLO 205 colon
[17] = test system: TK-10 renal
[18] = test system: U251 glioblastoma
[19] = test system: CAKI-1 renal
[20] = test system: HOP-62 NSCLC
[21] = test system: K-562 leukemia
[22] = test system: MOLT-4 leukemia
[23] = test system: PC-3 prostate
[24] = test system: MDA-MB-435 melanoma
[25] = test system: LOX IMVI melanoma
[26] = test system: SNB-19 CNS
[27] = test system: HCT-116 colon
[28] = test system: SR leukemia
[29] = test system: A549 NSCLC
[30] = test system: KM12 colon
[31] = test system: UACC-257 melanoma
[32] = test system: HCT-15 colon
[33] = test system: DU-145 prostate
[34] = test system: MDA-MB-231 breast
[35] = test system: SK-OV-3 ovarian
[36] = test system: NCI-H460 NSCLC
[37] = test system: 786-0 renal
[38] = test system: SK-MEL-28 melanoma
[39] = test system: HT29 colon
[40] = test system: SN12C renal
[41] = test system: SF-539 CNS
[42] = test system: RPMI-8226 leukemia
[43] = test system: IGROV1 ovarian
[44] = test system: HOP-92 NSCLC
[45] = test system: RXF 393 renal
[46] = test system: SF-268 CNS
[47] = test system: NCI-H322M lung
[48] = test system: BT-549 breast
[49] = test system: MALME-3M melanoma
[50] = test system: SW-620 colon
[51] = test system: NCI-H226 lung
[52] = test system: SK-MEL-2 melanoma
[53] = test system: HCC-2998 colon
[54] = test system: OVCAR-4 ovarian
[55] = test system: MCF7 breast
[56] = test system: OVCAR-5 ovarian
[57] = test system: MDA-MB-468 breast

Compound `COc1cc(N2CCC(N3CCN(C)CC3)CC2)ccc1Nc1ncnc(Nc2ccccc2S(=O)(=O)C(C)C)n1` has a GI50 [1] of 2.38 µM, a TGI [1] of 7.72 µM and a GI50 [2] of 2.02 µM. For the same compound, the TGI [2] was 7.51 µM, the GI50 [3] was 3.1 µM and the TGI [3] was 14.8 µM. For the same compound, the GI50 [4] was 2.56 µM, the TGI [4] was 7.81 µM and the GI50 [5] was 3.03 µM. The TGI [5] was 8.73 µM, the GI50 [6] was 2.68 µM and the TGI [6] was 5.61 µM. For the same compound, the GI50 [7] was 1.46 µM, the TGI [7] was 12.1 µM and the GI50 [8] was 2.99 µM. For the same compound, the TGI [8] was 10.2 µM, the GI50 [9] was 1.58 µM and the TGI [9] was 4.46 µM. The GI50 [10] was 1.86 µM, the TGI [10] was 6.09 µM and the GI50 [11] was 4.96 µM. For the same compound, the TGI [11] was 17 µM, the GI50 [12] was 1.62 µM and the TGI [12] was 5.15 µM. The GI50 [13] was 2.98 µM, the TGI [13] was 9.59 µM and the GI50 [14] was 3.46 µM. For the same compound, the TGI [14] was 10.3 µM, the GI50 [15] was 1.65 µM and the TGI [15] was 4.44 µM. It also gave a GI50 [16] of 2.31 µM, a TGI [16] of 7.37 µM and a GI50 [17] of 2.95 µM. For the same compound, the TGI [17] was 9 µM, the GI50 [18] was 3.75 µM and the TGI [18] was 13.5 µM. For the same compound, the GI50 [19] was 2.17 µM, the TGI [19] was 5.5 µM and the GI50 [20] was 2.85 µM. It also gave a TGI [20] of 8.12 µM, a GI50 [21] of 3.75 µM and a TGI [21] of 15.3 µM. For the same compound, the GI50 [22] was 1.36 µM, the TGI [22] was 2.71 µM and the GI50 [23] was 6.17 µM. The TGI [23] was 19.8 µM, the GI50 [24] was 1.95 µM and the TGI [24] was 5.18 µM. The GI50 [25] was 2.3 µM, the TGI [25] was 4.48 µM and the GI50 [26] was 3.36 µM. The TGI [26] was 12.9 µM, the GI50 [27] was 3.34 µM and the TGI [27] was 12.4 µM. The GI50 [28] was 0.0183 µM, the TGI [28] was 0.0328 µM and the GI50 [29] was 2.48 µM. It also gave a TGI [29] of 9.2 µM, a GI50 [30] of 3.76 µM and a TGI [30] of 13.2 µM. For the same compound, the GI50 [31] was 2.1 µM, the TGI [31] was 6.53 µM and the GI50 [32] was 2.97 µM. For the same compound, the TGI [32] was 11.1 µM, the GI50 [33] was 3.23 µM and the TGI [33] was 11.8 µM. The GI50 [34] was 1.41 µM, the TGI [34] was 4.94 µM and the GI50 [35] was 1.5 µM. For the same compound, the TGI [35] was 5.26 µM, the GI50 [36] was 3.3 µM and the TGI [36] was 13.7 µM. The GI50 [37] was 3.08 µM, the TGI [37] was 12.6 µM and the GI50 [38] was 2.69 µM. For the same compound, the TGI [38] was 9.67 µM, the GI50 [39] was 1.29 µM and the TGI [39] was 5.08 µM. It also gave a GI50 [40] of 2.6 µM, a TGI [40] of 9.92 µM and a GI50 [41] of 2.29 µM. It also gave a TGI [41] of 6.32 µM, a GI50 [42] of 1.27 µM and a TGI [42] of 4.72 µM. The GI50 [43] was 1.86 µM, the TGI [43] was 4.46 µM and the GI50 [44] was 1.06 µM. The TGI [44] was 3.7 µM, the GI50 [45] was 1.7 µM and the TGI [45] was 6.37 µM. For the same compound, the GI50 [46] was 3.13 µM, the TGI [46] was 12.2 µM and the GI50 [47] was 2.86 µM. For the same compound, the TGI [47] was 9.29 µM, the GI50 [48] was 10.9 µM and the TGI [48] was 22.9 µM. It also gave a GI50 [49] of 3.41 µM, a TGI [49] of 14.1 µM and a GI50 [50] of 3.26 µM. It also gave a TGI [50] of 12.3 µM, a GI50 [51] of 1.42 µM and a TGI [51] of 3.68 µM. For the same compound, the GI50 [52] was 1.43 µM, the TGI [52] was 3.68 µM and the GI50 [53] was 2.49 µM. It also gave a TGI [53] of 14.3 µM, a GI50 [54] of 1.49 µM and a TGI [54] of 6.28 µM. For the same compound, the GI50 [55] was 1.04 µM, the TGI [55] was 6.1 µM and the GI50 [56] was 1.5 µM. The TGI [56] was 4.24 µM, the GI50 [57] was 3.1 µM and the TGI [57] was 9.91 µM.
